Experimental findings from US9242984B2, “Pyrazolyl derivatives as Syk inhibitors” (Merck Sharp & Dohme Corp., priority 2012, dated 2016) are described below.

For one experiment, the target named is T1, recombinant human Syk (GST-hSyk fusion protein) (Homo sapiens, UniProt P43405).
T1 construct: purchased Carna Biosciences 08-176
Briefly: Homogeneous Time-Resolved Fluorescence (HTRF) assay for the recombinant human Syk enzyme. It is filed as biochemical. To be noted: 10-dose titration, 25 μM ATP; read-out: rhSYK IC50. Put shortly: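 GST-hSyk (5 pM) preincubated 10 min with compound (0.1% DMSO) in 15 mM Tris-HCl pH 7.5, 2 mM DTT; reaction started with 250 nM biotinylated peptide, 5 mM Mg, 25 μM ATP, 45 min, room temperature. EDTA quench, Eu-anti-phosphotyrosine/SA-APC HTRF read after 30 min; IC50 from 10-dose titration (10 μM–0.508 nM), four-parameter fit.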
On the technique in general: Time-resolved FRET reads energy transfer from a long-lived donor to a nearby acceptor.
Regarding `COC(=O)[C@@H](N)Cn1cc(-c2cc(C)cc(Nc3nccc(C(F)(F)F)n3)c2)cn1` [Example 4.1, methyl 3-[4-(3-methyl-5-{[4-(trifluoromethyl)pyrimidin-2-yl]amino}phenyl)-1H-pyrazol-1-yl]-L-alaninate], the IC50 worked out at 27.4 nM.

Staying with this experiment, now noted: IC50 class; 10-dose titration, 25 μM ATP; read-out: rhSYK Activity.
On to `Cc1cc(Nc2nccc(C(F)(F)F)n2)cc(-c2cnn(CC3(C)CNC(=O)O3)c2)c1` (stereo not shown) [Example 3.117, 5-methyl-5-{[4-(3-methyl-5-{[4-(trifluoromethyl)pyrimidin-2-yl]amino}phenyl)-1H-pyrazol-1-yl]methyl}-1,3-oxazolidin-2-one], for which the IC50 is no more than 100 nM.

In the case of `Cc1cc(Nc2nccc(C(F)(F)F)n2)cc(-c2cnn(CC3(C)CNC(=O)O3)c2)c1` (stereo not shown) [Example 3.118, 5-methyl-5-{[4-(3-methyl-5-{[4-(trifluoromethyl)pyrimidin-2-yl]amino}phenyl)-1H-pyrazol-1-yl]methyl}-1,3-oxazolidin-2-one], the IC50 is no more than 100 nM.

For `Cc1cc(Nc2nccc(C(F)(F)F)n2)cc(-c2cnn(CC3OC(=O)NC3C)c2)c1` (stereo not shown) [Example 3.119, 4-methyl-5-{[4-(3-methyl-5-{[4-(trifluoromethyl)pyrimidin-2-yl]amino}phenyl)-1H-pyrazol-1-yl]methyl}-1,3-oxazolidin-2-one], the IC50 is no more than 100 nM.

For the compound `Cc1cc(Nc2nccc(C(F)(F)F)n2)cc(-c2cnn(CC3OC(=O)NC3C)c2)c1` (stereo not shown) [Example 3.120, 4-methyl-5-{[4-(3-methyl-5-{[4-(trifluoromethyl)pyrimidin-2-yl]amino}phenyl)-1H-pyrazol-1-yl]methyl}-1,3-oxazolidin-2-one], the IC50 is no more than 100 nM.

For `Cc1cc(Nc2nccc(C)n2)cc(-c2cnn(CC3(C)CNC(=O)O3)c2)c1` (stereo not shown) [Example 3.121, 5-methyl-5-[(4-{3-methyl-5-[(4-methylpyrimidin-2-yl)amino]phenyl}-1H-pyrazol-1-yl)methyl]-1,3-oxazolidin-2-one], the IC50 is no more than 100 nM.

As for `Cc1cc(Nc2nccc(C)n2)cc(-c2cnn(CC3(C)CNC(=O)O3)c2)c1` (stereo not shown) [Example 3.122, 5-methyl-5-[(4-{3-methyl-5-[(4-methylpyrimidin-2-yl)amino]phenyl}-1H-pyrazol-1-yl)methyl]-1,3-oxazolidin-2-one], the IC50 is no more than 100 nM.

For the compound `Cc1cc(Nc2nccc(C(F)F)n2)cc(-c2cnn(CC3(C)CNC(=O)O3)c2)c1` (stereo not shown) [Example 3.123, 5-{[4-(3-{[4-(difluoromethyl)pyrimidin-2-yl]amino}-5-methylphenyl)-1H-pyrazol-1-yl]methyl}-5-methyl-1,3-oxazolidin-2-one], the IC50 was no more than 100 nM.

On to `Cc1cc(Nc2nccc(C(F)F)n2)cc(-c2cnn(CC3(C)CNC(=O)O3)c2)c1` (stereo not shown) [Example 3.124, 5-{[4-(3-{[4-(difluoromethyl)pyrimidin-2-yl]amino}-5-methylphenyl)-1H-pyrazol-1-yl]methyl}-5-methyl-1,3-oxazolidin-2-one], for which the IC50 is no more than 100 nM.

Take `Cc1cc(Nc2nccc(C(C)(F)F)n2)cc(-c2cnn(CC3CNC(=O)O3)c2)c1` (stereo not shown) [Example 3.125, 5-{[4-(3-{[4-(1,1-difluoroethyl)pyrimidin-2-yl]amino}-5-methylphenyl)-1H-pyrazol-1-yl]methyl}-1,3-oxazolidin-2-one]: the IC50 was no more than 100 nM.

As for `Cc1cc(Nc2nccc(C(C)(F)F)n2)cc(-c2cnn(CC3CNC(=O)O3)c2)c1` (stereo not shown) [Example 3.126, 5-{[4-(3-{[4-(1,1-difluoroethyl)pyrimidin-2-yl]amino}-5-methylphenyl)-1H-pyrazol-1-yl]methyl}-1,3-oxazolidin-2-one], the IC50 was no more than 100 nM.

For the compound `Cc1cc(Nc2nccc(C(F)(F)F)n2)cc(-c2cnn(CC3NC(=O)OC3C)c2)c1` (stereo not shown) [Example 3.127, 5-methyl-4-{[4-(3-methyl-5-{[4-(trifluoromethyl)pyrimidin-2-yl]amino}phenyl)-1H-pyrazol-1-yl]methyl}-1,3-oxazolidin-2-one], the IC50 was no more than 100 nM.

Consider `Cc1cc(Nc2nccc(C(F)(F)F)n2)cc(-c2cnn(CC3NC(=O)OC3C)c2)c1` (stereo not shown) [Example 3.128, 5-methyl-4-{[4-(3-methyl-5-{[4-(trifluoromethyl)pyrimidin-2-yl]amino}phenyl)-1H-pyrazol-1-yl]methyl}-1,3-oxazolidin-2-one], for which the IC50 is no more than 100 nM.

For `Cc1cc(Nc2nccc(C(F)(F)F)n2)cc(-c2cnn(CC3NC(=O)OC3C)c2)c1` (stereo not shown) [Example 3.129, 5-methyl-4-{[4-(3-methyl-5-{[4-(trifluoromethyl)pyrimidin-2-yl]amino}phenyl)-1H-pyrazol-1-yl]methyl}-1,3-oxazolidin-2-one], the IC50 was no more than 100 nM.

As for `COC(=O)[C@@H](N)Cn1cc(-c2cc(C)cc(Nc3nccc(C(F)(F)F)n3)c2)cn1` [Example 4.1, methyl 3-[4-(3-methyl-5-{[4-(trifluoromethyl)pyrimidin-2-yl]amino}phenyl)-1H-pyrazol-1-yl]-L-alaninate], the IC50 is no more than 100 nM.

In the case of `COC(=O)[C@@H](O)Cn1cc(-c2cc(C)cc(Nc3nccc(C(F)(F)F)n3)c2)cn1` [Example 5.2, methyl (2S)-2-hydroxy-3-[4-(3-methyl-5-{[4-(trifluoromethyl)-pyrimidin-2-yl]amino}phenyl)-1H-pyrazol-1-yl]propanoate], the IC50 is no more than 100 nM.

As to `COC(=O)[C@H](O)Cn1cc(-c2cc(C)cc(Nc3nccc(C(F)(F)F)n3)c2)cn1` [Example 5.3, methyl (2R)-2-hydroxy-3-[4-(3-methyl-5-{[4-(trifluoro-methyl)pyrimidin-2-yl]amino}phenyl)-1H-pyrazol-1-yl]propanoate], the IC50 is no more than 100 nM.

As for `Cc1cc(Nc2nccc(C(F)(F)F)n2)cc(-c2cnn(C[C@]3(O)CC[C@@H](C(=O)O)CC3)c2)c1` [Example 5.5, cis-4-hydroxy-4-{[4-(3-methyl-5-{[4-(trifluoro-methyl)pyrimidin-2-yl]amino}-phenyl)-1H-pyrazol-1-yl]methyl}-cyclo-hexanecarboxylic acid], the IC50 is no more than 100 nM.

As for `Cc1cc(Nc2nccc(C(F)(F)F)n2)cc(-c2cnn(CC(O)COC(C)C)c2)c1` (stereo not shown) [Example 5.7, 1-(1-methylethoxy)-3-[4-(3-methyl-5-{[4-(trifluoro-methyl)pyrimidin-2-yl]amino}-phenyl)-1H-pyrazol-1-yl]propan-2-ol], the IC50 was no more than 100 nM.

As for `Cc1cc(Nc2nccc(C(F)(F)F)n2)cc(-c2cnn(CC(O)COc3ccccc3)c2)c1` (stereo not shown) [Example 5.8, 1-[4-(3-methyl-5-{[4-(trifluoro-methyl)pyrimidin-2-yl]amino}-phenyl)-1H-pyrazol-1-yl]-3-phenoxypropan-2-ol], the IC50 is 100 to 1000 nM.

For `COc1ccc(OCC(O)Cn2cc(-c3cc(C)cc(Nc4nccc(C(F)(F)F)n4)c3)cn2)cc1` (stereo not shown) [Example 5.11, 1-(4-methoxy-phenoxy)-3-[4-(3-methyl-5-{[4-(trifluoromethyl)-pyrimidin-2-yl]amino}phenyl)-1H-pyrazol-1-yl]propan-2-ol], the IC50 lay within 100 to 1000 nM.

Regarding `Cc1cc(Nc2nccc(C(F)(F)F)n2)cc(-c2cnn(CC(C)(C)O)c2)c1` [Example 5.12, 2-methyl-1-[4-(3-methyl-5-{[4-(trifluorometh-yl)pyrimidin-2-yl]amino}-phenyl)-1H-pyrazol-1-yl]propan-2-ol], the IC50 was no more than 100 nM.

As to `Cc1cc(Nc2nccc(C(F)(F)F)n2)cc(-c2cnn(C[C@@H](O)C(=O)O)c2)c1` [Example 5.16, (2R)-2-hydroxy-3-[4-(3-methyl-5-{[4-(trifluoromethyl)-pyrimidin-2-yl]amino}phenyl)-1H-pyrazol-1-yl]propanoic acid], the IC50 is no more than 100 nM.

Regarding `Cc1cc(Nc2nccc(C(F)(F)F)n2)cc(-c2cnn(C[C@H](O)C(=O)O)c2)c1` [Example 5.17, (2S)-2-hydroxy-3-[4-(3-methyl-5-{[4-(trifluorometh-yl)pyrimidin-2-yl]amino}-phenyl)-1H-pyrazol-1-yl]propanoic acid], the IC50 was no more than 100 nM.

Regarding `Cc1cc(Nc2nccc(C(F)F)n2)cc(-c2cnn(CC(O)C(N)=O)c2)c1` (stereo not shown) [Example 5.18, 3-[4-(3-{[4-(difluoromethyl)pyrimidin-2-yl]amino}-5-methylphenyl)-1H-pyrazol-1-yl]-2-hydroxypropanamide], the IC50 was no more than 100 nM.

For the compound `Cc1cc(Nc2nccc(C(F)F)n2)cc(-c2cnn(CC(O)CF)c2)c1` (stereo not shown) [Example 5.19, 1-[4-(3-{[4-(difluoromethyl)pyrimidin-2-yl]amino}-5-methylphenyl)-1H-pyrazol-1-yl]-3-fluoropropan-2-ol], the IC50 is no more than 100 nM.

For `CCOC(=O)C(O)Cn1cc(-c2cc(C)cc(Nc3nccc(C(F)F)n3)c2)cn1` (stereo not shown) [Example 5.20, ethyl 3-[4-(3-{[4-(difluoromethyl)pyrimidin-2-yl]amino}-5-methylphenyl)-1H-pyrazol-1-yl]-2-hydroxypropanoate], the IC50 was no more than 100 nM.

Regarding `Cc1cc(Nc2nccc(C(F)F)n2)cc(-c2cnn(CC(O)CNC(=O)OC(C)(C)C)c2)c1` (stereo not shown) [Example 5.21, tert-butyl {3-[4-(3-{[4-(difluoromethyl)pyrimidin-2-yl]amino}-5-methylphenyl)-1H-pyrazol-1-yl]-2-hydroxypropyl}carbamate], the IC50 was no more than 100 nM.

Regarding `COCC(O)Cn1cc(-c2cc(C)cc(Nc3nccc(C(F)F)n3)c2)cn1` (stereo not shown) [Example 5.22, 1-[4-(3-{[4-(difluoromethyl)pyrimidin-2-yl]amino}-5-methylphenyl)-1H-pyrazol-1-yl]-3-methoxypropan-2-ol], the IC50 was no more than 100 nM.

For `Cc1cc(Nc2nccc(C(F)F)n2)cc(-c2cnn(CC(O)C(C)C)c2)c1` (stereo not shown) [Example 5.23, 1-[4-(3-{[4-(difluoromethyl)pyrimidin-2-yl]amino}-5-methylphenyl)-1H-pyrazol-1-yl]-3-methylbutan-2-ol], the IC50 is no more than 100 nM.

For `Cc1cc(Nc2nccc(C(F)F)n2)cc(-c2cnn(CC(O)C(F)(F)F)c2)c1` (stereo not shown) [Example 5.24, 3-[4-(3-{[4-(difluoromethyl)pyrimidin-2-yl]amino}-5-methylphenyl)-1H-pyrazol-1-yl]-1,1,1-trifluoropropan-2-ol], the IC50 was no more than 100 nM.
